Measured values from patent publication US20240368122A1, “JAK2 INHIBITORS AND METHODS OF USE THEREOF” (RELAY THERAPEUTICS, INC., priority 2021, published 2024).
Read-outs that look alike come from different tables or passages of the source.

How the values were obtained:
[1] = molecular target: T1, JAK2 JH2 WT (V536-D812) [W659A, W777A, F794H solubilizing mutations] (Homo sapiens, UniProt O60674, F794H/W659A/W777A); test: Surface Plasmon Resonance (SPR) binding assay, JAK2 JH2 domain
T1 construct: **JAK2 JH2 WT (V536-D812) [W659A, W777A, F794H solubilizing mutations]; C-thrombin-avi-His6; thrombin cleavage site (C); His6 (C); purchased Biortus
Outline: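 Kinetics came from 1:1 fits of single-cycle runs at 20 °C: four 3-fold dilutions from 5 uM for JH1 or 500 nM for JH2, 60 s association, and 300 s or 1200 s dissociation respectively. Protein was freshly captured per compound in the presence of 10 uM stabilizer compound, with running buffer of pH 7.5 HEPES/NaCl/glycerol/DTT plus 2% DMSO.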

[2] = tested on: TF1 JAK2 V617F STAT3 reporter; test: Cellular TF1 STAT3 assay (luciferase reporter), JAK2 V617F; type: cell-based; conditions: read-out: Cell PD-TF1 JAK2 V617F STAT3 (IC50)
Outline: (§1)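 Measured in TF1 cells with mutant JAK2 V617F and STAT-responsive luciferase: 18-20 h compound exposure at 37 °C, then ONE-glo luminescence.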

JAK2 JH1 WT (T842-G1132) = molecular target: T2, JAK2 JH1 WT (T842-G1132) (Homo sapiens, UniProt O60674); test: Surface Plasmon Resonance (SPR) binding assay, JAK2 JH1 domain
T2 construct: *JAK2 JH1 WT (T842-G1132) N-His60-avi-TEV; His6 (N); TEV cleavage site (N); purchased Biortus
Procedure: Selected compounds of the present disclosure were tested in a Surface Plasmon Resonance (SPR) Assay to measure their binding kinetics and affinity for proteins of interest.
Prepare buffer: 50 mM HEPES pH 7.5, 150 mM NaCl, 0.05% (v/v) Tween, and 10% (v/v) glycerol were combined and pH was adjusted to 7.5, then filtered. 5 mM DTT, was added, and buffer without DMSO was reserved for compound resuspension. 2% (v/v) DMSO was added for assay buffer, and separately 1% DMSO was used to make buffer for resuspending compounds.
Prepare compounds: Using a Bravo liquid handler, 99 μL of 1% (v/v) DMSO assay buffer was added to 1 μL compounds in DMSO.
Run 8K Method: Biotin CAPture (CAP) chip surface was regenerated prior to run by: Inserting CAP chip into Biacore 8K, prime machine with assay buffer with 2% (v/v) DMSO; Setting instrument temperature to 20° C.; Conditioning surface with NaOH/GdnHCl reagents from CAP chip kit (60 seconds, 10 μL/min); and Capturing oligo-Streptavidin (SA) reagent from CAP kit (600 seconds, 1 μL/min), expected capture ˜2500 RU. JAK2 JH1 or JH2 protein was immobilized by preparing a sample of 0.5 uM JH1 or 0.4 uM JH2 protein diluted in assay buffer without DMSO and supplemented with 10 uM of a selected compound of the invention as a stabilizer (370 seconds, 5 uL/min), expected capture ˜1000 RU. Remaining biotin sites on SA were blocked with 1 uM biotin (30 seconds, 20 uL/min), then equilibrated for 1800 seconds at 100 uL/min. Compounds being assayed were run in single cycle kinetics: 4 doses with a top concentration of 5 uM (JH1) or 500 nM (JH2), dilution factor of 3, at 20° C., for a contact time of 60 seconds, and a dissociation time of 300 seconds (JH1) or 1200 seconds (JH2), at a flow rate of 30 uL/min. The surface was completely regenerated after each compound is run, and JH1 or JH2 protein was immobilized fresh prior to each new compound. Data were fitted kinetically with 1:1 binding model using Biacore Insight Evaluation Software.

[3] = tested on: TF1 JAK2 V617F STAT5 reporter; test: Cellular TF1 STAT5 assay (luciferase reporter), JAK2 V617F; type: cell-based; conditions: read-out: Cell PD TF1 V617F STAT5 (IC50)
Outline: as §1

[4] = Homo sapiens, TF-1, TF1 cells, JAK2 V617F

T2 sequence (O60674 842-1132): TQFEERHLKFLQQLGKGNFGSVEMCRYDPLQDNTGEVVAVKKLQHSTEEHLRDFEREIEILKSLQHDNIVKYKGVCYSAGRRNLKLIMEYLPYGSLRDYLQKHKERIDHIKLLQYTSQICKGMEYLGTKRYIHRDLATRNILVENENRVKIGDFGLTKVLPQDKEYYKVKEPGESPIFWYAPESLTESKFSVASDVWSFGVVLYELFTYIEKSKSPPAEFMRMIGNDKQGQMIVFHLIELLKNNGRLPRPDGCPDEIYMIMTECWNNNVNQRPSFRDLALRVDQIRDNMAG
T1 sequence (O60674 536-812 W659A/W777A/F794H): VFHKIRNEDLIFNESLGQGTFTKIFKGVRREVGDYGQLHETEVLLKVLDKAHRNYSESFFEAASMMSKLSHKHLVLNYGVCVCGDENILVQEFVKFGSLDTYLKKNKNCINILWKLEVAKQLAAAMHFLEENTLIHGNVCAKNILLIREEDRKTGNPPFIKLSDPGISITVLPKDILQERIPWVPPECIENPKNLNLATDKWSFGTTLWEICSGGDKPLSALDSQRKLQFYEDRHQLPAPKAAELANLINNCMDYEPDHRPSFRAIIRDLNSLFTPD

| SMILES | Kd ([1]; SPR, JAK2 JH2 domain) | IC50 ([2]; TF1 JAK2 V617F) | Kd (JAK2 JH1 WT (T842-G1132); SPR, JAK2 JH1 domain) | IC50 ([3]; TF1 JAK2 V617F) | Kd [1] | IC50 [2, 4] | Kd (JAK2 JH1 WT (T842-G1132)) | IC50 [3, 4] |
| --- | --- | --- | --- | --- | --- | --- | --- | --- |
| CNC(=O)c1nnc(NC(=O)C2CC2)cc1Nc1cccc(-c2ccc(C(=O)N(Cc3cc(C#N)ccn3)OC)nc2)c1OC [Compound 159] | 0.01 to 10 nM | 50 to 500 nM | 5000 to 100000 nM | 50 to 500 nM |  |  |  |  |
| CNC(=O)c1nnc(NC(=O)C2CC2)cc1Nc1cccc(-c2ccc(C(=O)N(C)Cc3c(C)ccnc3C)nc2)c1OC [Compound 133] | 0.01 to 10 nM | 50 to 500 nM | 5000 to 100000 nM | 50 to 500 nM |  |  |  |  |
| CNC(=O)c1nnc(NC(=O)C2CC2)cc1Nc1cccc(-c2cn(C3CN(Cc4ccccn4)C3)nn2)c1OC [Compound 150] | 0.01 to 10 nM | 500 to 5000 nM | 5000 to 100000 nM | 500 to 5000 nM |  |  |  |  |
| C#Cc1cccc(CN2CC(n3cc(-c4cccc(Nc5cc(NC(=O)C6CC6)nnc5C(=O)NC)c4OC)cn3)C2)n1 [Compound 152] | 0.01 to 10 nM | 50 to 500 nM | 500 to 5000 nM | 50 to 500 nM |  |  |  |  |
| [2H]C([2H])([2H])NC(=O)c1nnc(NC(=O)C2CC2)cc1Nc1cccc(-c2ccc(C(=O)N(C)Cc3cc(C#N)ccn3)nc2)c1OC [Compound 61] | 0.01 to 10 nM | 50 to 500 nM | 5000 to 100000 nM | 50 to 500 nM |  |  |  |  |
| CNC(=O)c1nnc(NC(=O)C2CC2)cc1Nc1cccc(-c2ccc(C(=O)N(C)Cc3nncs3)nc2)c1OC [Compound 146] | 0.01 to 10 nM | 500 to 5000 nM | 5000 to 100000 nM | 5000 to 100000 nM |  |  |  |  |
| COc1c(Nc2cc(NC(=O)C3CC3)nnc2C(N)=O)cccc1-c1ccc(C(=O)N(C)Cc2cc(C#N)ccn2)nc1 [Compound 220] |  |  |  |  | 0.01 to 10 nM | 50 to 500 nM | 50 to 500 nM | 50 to 500 nM |
| CNC(=O)c1nnc(NC(=O)C2CC2)cc1Nc1cccc(-c2ccc(C(=O)N(C)Cc3ccn(C)n3)c(C#N)c2)c1OC [Compound 119] | 0.01 to 10 nM | 500 to 5000 nM | 5000 to 100000 nM | 500 to 5000 nM |  |  |  |  |
| CNC(=O)c1nnc(NC(=O)C2CC2)cc1Nc1ccc(C)c(-c2cnc(C(=O)N(C)Cc3ccccn3)c(F)c2)c1OC [Compound 43] | 0.01 to 10 nM | 500 to 5000 nM | 5000 to 100000 nM | 500 to 5000 nM |  |  |  |  |
| CNC(=O)c1nnc(NC(=O)C2CC2)cc1Nc1cccc(-c2cnn(C3CN(Cc4nc(C)cs4)C3)c2)c1OC [Compound 141] | 0.01 to 10 nM | 500 to 5000 nM | 5000 to 100000 nM | 500 to 5000 nM |  |  |  |  |
| CNC(=O)c1nnc(NC(=O)C2CC2)cc1Nc1cccc(-c2ccc(C(=O)NCc3cccn(C)c3=O)c(C)c2)c1OC [Compound 10] | 0.01 to 10 nM | 500 to 5000 nM | 5000 to 100000 nM | 500 to 5000 nM |  |  |  |  |
| CNC(=O)c1nnc(NC(=O)C2CC2)cc1Nc1cccc(-c2ccc(C(=O)N(C)Cc3cc(C#N)ccn3)cn2)c1OC [Compound 55] | 0.01 to 10 nM | 500 to 5000 nM | 5000 to 100000 nM | 500 to 5000 nM |  |  |  |  |
| CNC(=O)c1nnc(NC(=O)C2CC2)cc1Nc1cccc(-c2cn(C3CN(Cc4cccc(C#N)n4)C3)nc2CO)c1OC [Compound 329] |  |  |  |  | 0.01 to 10 nM | 500 to 5000 nM | 500 to 5000 nM | 500 to 5000 nM |
| CNC(=O)c1nnc(NC(=O)C2CC2)cc1Nc1cccc(-c2cnc(C(=O)N(C)Cc3cc(C#N)ccn3)c(F)c2)c1OC [Compound 28] | 0.01 to 10 nM | 50 to 500 nM | 5000 to 100000 nM | 50 to 500 nM |  |  |  |  |
| CNC(=O)c1nnc(NC(=O)C2CC2)cc1Nc1cccc(-c2ccc(C(=O)N(C)Cc3cccc(C#N)n3)nc2)c1OC [Compound 135] | 0.01 to 10 nM | 50 to 500 nM | 5000 to 100000 nM | 50 to 500 nM |  |  |  |  |
| CNC(=O)c1nnc(NC(=O)C2CC2)cc1Nc1cccc(-c2cnn(C3CN(Cc4cccc(C(F)F)n4)C3)c2)c1OC [Compound 145] | 0.01 to 10 nM | 50 to 500 nM | 5000 to 100000 nM | 50 to 500 nM |  |  |  |  |
| CNC(=O)c1nnc(NC(=O)C2CC2)cc1Nc1ccc(C)c(-c2cnc(C(=O)N(C)Cc3cc(C#N)ccn3)c(F)c2)c1OC [Compound 42] | 0.01 to 10 nM | 50 to 500 nM | 5000 to 100000 nM | 50 to 500 nM |  |  |  |  |
| CNC(=O)c1nnc(NC(=O)C2CC2)cc1Nc1cccc(-c2cn(C3CN(Cc4cccc(C#N)n4)C3)nc2COC)c1OC [Compound 328] |  |  |  |  | 0.01 to 10 nM | 50 to 500 nM | 500 to 5000 nM | 50 to 500 nM |
| CNC(=O)c1nnc(NC(=O)C2CC2)cc1Nc1cccc(-c2cnc(C(=O)N(C)Cc3cc(C#N)ccn3)nc2)c1OC [Compound 36] | 0.01 to 10 nM | 50 to 500 nM | 5000 to 100000 nM | 50 to 500 nM |  |  |  |  |
| CNC(=O)c1nnc(NC(=O)C2CC2)cc1Nc1cccc(-c2ccc(C(=O)N(C)Cc3ccnn3C)nc2)c1OC [Compound 40] | 0.01 to 10 nM | 500 to 5000 nM | 5000 to 100000 nM | 500 to 5000 nM |  |  |  |  |
| CNC(=O)c1nnc(NC(=O)C2CC2)cc1Nc1cccc(-c2cnn(C3CN(C(C)=O)C3)c2)c1OC [Compound 301] |  |  |  |  | 50 to 500 nM | 5000 to 100000 nM | 5000 to 100000 nM | 5000 to 100000 nM |
| CNC(=O)c1nnc(NC(=O)C2CC2)cc1Nc1cccc(-c2cnn(C3CN(Cc4cccc(C#N)n4)C3)c2)c1OC [Compound 147] | 0.01 to 10 nM | 50 to 500 nM | 500 to 5000 nM | 50 to 500 nM |  |  |  |  |
| CNC(=O)c1nnc(NC(=O)C2CC2)cc1Nc1cccc(-c2cnn(C3CN(Cc4cnn(C)c4)C3)c2)c1OC [Compound 44] | 0.01 to 10 nM | 500 to 5000 nM | 500 to 5000 nM | 500 to 5000 nM |  |  |  |  |
| CNC(=O)c1nnc(NC(=O)C2CC2)cc1Nc1cccc(-c2ncc(NC(=O)Cc3cccn(C)c3=O)cn2)c1OC [Compound 6] | 0.01 to 10 nM | 5000 to 100000 nM | 500 to 5000 nM | 5000 to 100000 nM |  |  |  |  |
| CNC(=O)c1nnc(NC(=O)C2CC2)cc1Nc1cc(F)cc(-c2cnn(C3CN(Cc4ccn(C)n4)C3)c2)c1OC [Compound 155] | 0.01 to 10 nM | 500 to 5000 nM | 5000 to 100000 nM | 500 to 5000 nM |  |  |  |  |
